Data taken from patent US10308643B2, “Heterocyclic compound” (Takeda Pharmaceutical Company Limited, priority 2015, dated 2019).

What was measured:
Assay type in all cases: biochemical
HDAC1 enzyme = target: T1, HDAC1 enzyme (Homo sapiens, UniProt Q13547); experiment: HDAC1/6 Enzyme Inhibitory Assay (HDAC-Glo I/II Assay kit), HDAC1; settings: 1 μM test compound, wells without enzyme = 100% inhibition; for inhibition at 1 µM: read-out: HDAC1 inhibitory rate (%) (1 μM)
T1 construct: transducing full length HDAC1 and HDAC6 genes into Sf-9 insect cells; GST; purchased SignalChem; host or cells: Sf-9 insect cells
Method in brief: (§1)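 Inhibitory activity derives from HDAC-Glo luminescence, expressed relative to wells lacking enzyme (100% inhibition). Compounds meet full-length GST-purified HDAC1 or HDAC6 for 60 min at room temperature before a 20 min substrate-developer reaction.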

HDAC6 enzyme = target: T2, HDAC6 enzyme (Homo sapiens, UniProt Q9UBN7); experiment: HDAC1/6 Enzyme Inhibitory Assay (HDAC-Glo I/II Assay kit), HDAC6; settings: 1 μM test compound, wells without enzyme = 100% inhibition; for inhibition at 1 µM: read-out: HDAC6 inhibitory rate (%) (1 μM)
T2 construct: transducing full length HDAC1 and HDAC6 genes into Sf-9 insect cells; GST; purchased SignalChem; host or cells: Sf-9 insect cells
T2 sequence (Q9UBN7 1-1215): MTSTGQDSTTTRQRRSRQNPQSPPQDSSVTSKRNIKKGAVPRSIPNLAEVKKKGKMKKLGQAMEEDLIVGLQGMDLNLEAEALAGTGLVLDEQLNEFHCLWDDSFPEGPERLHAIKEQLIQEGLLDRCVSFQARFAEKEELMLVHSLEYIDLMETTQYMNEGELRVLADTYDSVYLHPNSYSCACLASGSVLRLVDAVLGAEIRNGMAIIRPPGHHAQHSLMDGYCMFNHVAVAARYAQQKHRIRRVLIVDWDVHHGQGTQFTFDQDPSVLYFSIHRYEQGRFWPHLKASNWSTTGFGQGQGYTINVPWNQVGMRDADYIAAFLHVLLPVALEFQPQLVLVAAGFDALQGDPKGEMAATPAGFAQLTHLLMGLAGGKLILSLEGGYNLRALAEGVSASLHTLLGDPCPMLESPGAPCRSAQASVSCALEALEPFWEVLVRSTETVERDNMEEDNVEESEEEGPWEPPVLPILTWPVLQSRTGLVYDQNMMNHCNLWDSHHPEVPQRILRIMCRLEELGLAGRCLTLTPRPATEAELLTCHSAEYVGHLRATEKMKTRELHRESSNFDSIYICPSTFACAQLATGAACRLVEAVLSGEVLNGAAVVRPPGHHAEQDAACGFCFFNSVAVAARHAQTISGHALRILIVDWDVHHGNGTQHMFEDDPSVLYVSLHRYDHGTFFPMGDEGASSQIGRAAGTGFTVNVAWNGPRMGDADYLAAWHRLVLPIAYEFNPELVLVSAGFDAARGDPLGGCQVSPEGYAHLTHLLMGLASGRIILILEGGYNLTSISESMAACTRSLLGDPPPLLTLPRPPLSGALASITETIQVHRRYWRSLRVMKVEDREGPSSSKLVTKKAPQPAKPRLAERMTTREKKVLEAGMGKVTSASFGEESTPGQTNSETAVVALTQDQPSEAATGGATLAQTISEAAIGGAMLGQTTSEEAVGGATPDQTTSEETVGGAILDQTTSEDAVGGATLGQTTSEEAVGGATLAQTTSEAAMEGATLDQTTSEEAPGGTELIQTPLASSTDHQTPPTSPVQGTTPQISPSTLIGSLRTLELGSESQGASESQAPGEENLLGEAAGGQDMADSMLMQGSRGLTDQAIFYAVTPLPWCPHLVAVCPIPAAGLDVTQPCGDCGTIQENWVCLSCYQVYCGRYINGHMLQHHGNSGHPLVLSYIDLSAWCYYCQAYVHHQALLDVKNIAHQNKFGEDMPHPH
Method in brief: as §1

HDAC9 enzyme = target: T3, HDAC9 enzyme (Homo sapiens, UniProt Q9UKV0); experiment: HDAC9 Enzyme Inhibitory Assay (HDAC-Glo class IIa); settings: 1 μM test compound, wells without enzyme = 100% inhibition; for inhibition at 1 µM: read-out: HDAC9 inhibitory rate (%) (1 μM)
T3 construct: transducing full length HDAC9 gene into Sf-9 insect cells; made in house; host or cells: Sf-9 insect cells
Method in brief: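 Full-length human HDAC9 from Sf-9 cells, Ni-NTA purified, preincubated with compound for 60 min at room temperature in Tris-HCl pH 7.5 buffer (MgCl2, KCl, NaCl, glutathione, Tween-20). HDAC-Glo class IIa substrate-developer added; luminescence read after 20 min, with no-enzyme wells defining 100% inhibition.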

T3 sequence (Q9UKV0 whole entry, species assumed): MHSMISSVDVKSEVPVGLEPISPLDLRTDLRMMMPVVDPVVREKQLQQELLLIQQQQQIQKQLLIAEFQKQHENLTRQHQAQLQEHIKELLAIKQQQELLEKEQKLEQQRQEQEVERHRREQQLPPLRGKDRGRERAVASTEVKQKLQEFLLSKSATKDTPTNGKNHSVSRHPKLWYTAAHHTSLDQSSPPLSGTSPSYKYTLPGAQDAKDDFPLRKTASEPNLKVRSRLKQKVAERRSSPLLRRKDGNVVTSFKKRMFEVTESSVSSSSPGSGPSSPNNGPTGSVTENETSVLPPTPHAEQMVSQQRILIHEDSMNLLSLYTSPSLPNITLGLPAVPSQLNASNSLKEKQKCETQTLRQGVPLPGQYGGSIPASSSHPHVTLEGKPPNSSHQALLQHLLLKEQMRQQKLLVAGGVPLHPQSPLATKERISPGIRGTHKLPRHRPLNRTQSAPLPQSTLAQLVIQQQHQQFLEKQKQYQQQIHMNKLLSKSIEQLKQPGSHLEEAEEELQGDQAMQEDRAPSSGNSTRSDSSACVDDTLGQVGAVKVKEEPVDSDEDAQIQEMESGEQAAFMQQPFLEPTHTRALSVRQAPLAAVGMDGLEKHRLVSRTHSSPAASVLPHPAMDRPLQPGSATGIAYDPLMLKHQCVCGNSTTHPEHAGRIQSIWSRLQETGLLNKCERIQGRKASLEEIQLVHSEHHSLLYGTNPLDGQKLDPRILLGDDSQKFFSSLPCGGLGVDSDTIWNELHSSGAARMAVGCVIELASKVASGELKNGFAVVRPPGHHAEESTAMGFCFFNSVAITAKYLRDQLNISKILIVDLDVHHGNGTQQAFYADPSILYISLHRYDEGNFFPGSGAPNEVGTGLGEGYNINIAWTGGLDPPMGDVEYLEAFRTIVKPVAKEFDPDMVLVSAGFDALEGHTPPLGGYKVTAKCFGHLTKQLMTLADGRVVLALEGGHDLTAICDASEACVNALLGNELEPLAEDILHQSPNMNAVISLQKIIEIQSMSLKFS
T1 sequence (Q13547 whole entry): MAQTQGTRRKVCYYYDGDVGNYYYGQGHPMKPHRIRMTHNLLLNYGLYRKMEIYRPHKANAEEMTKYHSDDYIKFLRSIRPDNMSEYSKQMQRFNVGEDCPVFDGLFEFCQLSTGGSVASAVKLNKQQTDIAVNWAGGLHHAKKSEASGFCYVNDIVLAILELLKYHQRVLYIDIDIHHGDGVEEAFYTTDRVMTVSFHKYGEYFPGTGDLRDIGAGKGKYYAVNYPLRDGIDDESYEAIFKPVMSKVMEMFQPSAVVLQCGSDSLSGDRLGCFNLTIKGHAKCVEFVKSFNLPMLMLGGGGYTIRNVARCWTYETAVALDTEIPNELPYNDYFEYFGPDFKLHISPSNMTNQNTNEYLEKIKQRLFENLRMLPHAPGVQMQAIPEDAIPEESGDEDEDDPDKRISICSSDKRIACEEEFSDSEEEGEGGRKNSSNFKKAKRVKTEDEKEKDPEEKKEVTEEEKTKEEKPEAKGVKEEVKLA

Structure (SMILES)	inhibition at 1 µM (HDAC1 enzyme) [%]	inhibition at 1 µM (HDAC6 enzyme) [%]	inhibition at 1 µM (HDAC9 enzyme) [%]	HDAC1 inhibitory rate (%) (1 μM) (HDAC1 enzyme)	HDAC6 inhibitory rate (%) (1 μM) (HDAC6 enzyme)	HDAC9 inhibitory rate (%) (1 μM) (HDAC9 enzyme)
O=C(N[C@@H]1CCCC[C@H]1N1Cc2ccc(-c3noc(C(F)(F)F)n3)cc2C1=O)N1CCS(=O)(=O)CC1 [Example 168, N-((1R,2R)-2-(1-oxo-6-(5-(trifluoromethyl)-1,2,4-oxadiazol-3-yl)-1,3-dihydro-2H-isoindol-2-yl)cyclohexyl)thiomorpholine-4-carboxamide 1,1-dioxide]	5	96	23			
O=C1c2cc(-c3noc(C(F)(F)F)n3)ccc2CN1[C@@H]1CCCC[C@H]1NC(=O)C1(O)CCC1 [Example 173, 1-hydroxy-N-((1R,2R)-2-(1-oxo-6-(5-(trifluoromethyl)-1,2,4-oxadiazol-3-yl)-1,3-dihydro-2H-isoindol-2-yl)cyclohexyl) cyclobutanecarboxamide]	5	100	42			
CC1(C(=O)N[C@@H]2CCCC[C@H]2N2Cc3ccc(-c4noc(C(F)(F)F)n4)cc3C2=O)CCC1 [Example 174, 1-methyl-N-((1R,2R)-2-(1-oxo-6-(5-(trifluoromethyl)-1,2,4-oxadiazol-3-yl)-1,3-dihydro-2H-isoindol-2-yl)cyclohexyl)cyclobutanecarboxamide]	8	90	60			
COC1(C(=O)N[C@@H]2CCCC[C@H]2N2Cc3ccc(-c4noc(C(F)(F)F)n4)cc3C2=O)CCC1 [Example 175, 1-methoxy-N-((1R,2R)-2-(1-oxo-6-(5-(trifluoromethyl)-1,2,4-oxadiazol-3-yl)-1,3-dihydro-2H-isoindol-2-yl)cyclohexyl)cyclobutanecarboxamide]	5	100	57			
O=C1CCCN1[C@@H]1COCC[C@H]1N1Cc2ccc(-c3noc(C(F)(F)F)n3)cc2C1=O [Example 177, 2-((3S,4R)-3-(2-oxopyrrolidin-1-yl)tetrahydro-2H-pyran-4-yl)-6-(5-(trifluoromethyl)-1,2,4-oxadiazol-3-yl)isoindolin-1-one]	8	98	64			
O=C1CCCN1c1ccccc1N1Cc2ccc(-c3noc(C(F)(F)F)n3)cc2C1=O [Example 184, 2-(2-(2-oxopyrrolidin-1-yl)phenyl)-6-(5-(trifluoromethyl)-1,2,4-oxadiazol-3-yl)isoindolin-1-one]	7	98	56			
O=C1CCCN1c1cccc(Cl)c1N1Cc2ccc(-c3noc(C(F)(F)F)n3)cc2C1=O [Example 185, 2-(2-chloro-6-(2-oxopyrrolidin-1-yl)phenyl)-6-(5-(trifluoromethyl)-1,2,4-oxadiazol-3-yl)isoindolin-1-one]	5	97	41			

Other lines, results leading:

inhibition at 1 µM (HDAC1 enzyme) [%]	inhibition at 1 µM (HDAC6 enzyme) [%]	inhibition at 1 µM (HDAC9 enzyme) [%]	HDAC1 inhibitory rate (%) (1 μM) (HDAC1 enzyme)	HDAC6 inhibitory rate (%) (1 μM) (HDAC6 enzyme)	HDAC9 inhibitory rate (%) (1 μM) (HDAC9 enzyme)	Structure (SMILES)
10	98	40				O=C(N[C@@H]1CCCC[C@H]1N1Cc2ccc(-c3noc(C(F)(F)F)n3)cc2C1=O)N1CCC(F)(F)C1 [Example 169, 3,3-difluoro-N-((1R,2R)-2-(1-oxo-6-(5-(trifluoromethyl)-1,2,4-oxadiazol-3-yl)-1,3-dihydro-2H-isoindol-2-yl)cyclohexyl)pyrrolidine-1-carboxamide]
			16	100	64	CC1(C(=O)N[C@@H]2CCCC[C@H]2N2Cc3ccc(-c4noc(C(F)(F)F)n4)cc3C2=O)CC1(F)F (stereo partly drawn) [Example 170, 2,2-difluoro-1-methyl-N-((1R,2R)-2-(1-oxo-6-(5-(trifluoromethyl)-1,2,4-oxadiazol-3-yl)-1,3-dihydro-2H-isoindol-2-yl)cyclohexyl) cyclopropanecarboxamide]
			9	98	67	CC1(C(=O)N[C@@H]2CCCC[C@H]2N2Cc3ccc(-c4noc(C(F)(F)F)n4)cc3C2=O)CC1(F)F (stereo partly drawn) [Example 171, 2,2-difluoro-1-methyl-N-((1R,2R) 2-(1-oxo-6-(5-(trifluoromethyl)-1,2,4-oxadiazol-3-yl)-1,3-dihydro-2H-isoindol-2-yl)cyclohexyl)cyclopropanecarboxamide]
7	99	49				O=C(N[C@@H]1CCOC[C@H]1N1Cc2ccc(-c3noc(C(F)(F)F)n3)cc2C1=O)[C@@H]1CC1(F)F [Example 172, (1S)-2,2-difluoro-N-((3S,4R)-3-(1-oxo-6-(5-(trifluoromethyl)-1,2,4-oxadiazol-3-yl)-1,3-dihydro-2H-isoindol-2-yl)tetrahydro-2H-pyran-4-yl)cyclopropanecarboxamide]
			8	99	61	O=C1CCCN1[C@@H]1CCOC[C@H]1N1Cc2ccc(-c3noc(C(F)(F)F)n3)cc2C1=O [Example 178, 2-((3S,4R)-4-(2-oxopyrrolidin-1-yl)tetrahydro-2H-pyran-3-yl)-6-(5-(trifluoromethyl)-1,2,4-oxadiazol-3-yl)isoindolin-1-one]
11	90	84				O=C1c2cc(-c3noc(C(F)(F)F)n3)ccc2CN1[C@@H]1COCC[C@H]1O [Example 179, 1,5-anhydro-2,4-dideoxy-2-(1-oxo-6-(5-(trifluoromethyl)-1,2,4-oxadiazol-3-yl)-1,3-dihydro-2H-isoindol-2-yl)-D-threo-pentitol]
			13	99	72	O=C1CCCN1[C@@H]1COCC[C@H]1N1Cc2ccc(-c3noc(C(F)(F)F)n3)cc2C1=O [Example 180, 2-((3S,4R)-3-(2-oxopyrrolidin-1-yl)tetrahydro-2H-pyran-4-yl)-6-(5-(trifluoromethyl)-1,2,4-oxadiazol-3-yl)isoindolin-1-one]
2	74	41				O=C1CCCN1[C@H]1COCC[C@@H]1N1Cc2ccc(-c3noc(C(F)(F)F)n3)cc2C1=O [Example 181, 2-((3R,4S)-3-(2-oxopyrrolidin-1-yl)tetrahydro-2H-pyran-4-yl)-6-(5-(trifluoromethyl)-1,2,4-oxadiazol-3-yl)isoindolin-1-one]
			10	98	71	O=C1CCCN1[C@@H]1CCOC[C@H]1N1Cc2ccc(-c3noc(C(F)(F)F)n3)cc2C1=O [Example 182, 2-((3S,4R)-4-(2-oxopyrrolidin-1-yl)tetrahydro-2H-pyran-3-yl)-6-(5-(trifluoromethyl)-1,2,4-oxadiazol-3-yl)isoindolin-1-one]
			1	77	47	O=C1CCCN1[C@@H]1CCOC[C@H]1N1Cc2ccc(-c3noc(C(F)(F)F)n3)cc2C1=O [Example 183, 2-((3S,4R)-4-(2-oxopyrrolidin-1-yl)tetrahydro-2H-pyran-3-yl)-6-(5-(trifluoromethyl)-1,2,4-oxadiazol-3-yl)isoindolin-1-one]
